From US20140228349A1, “5,7-SUBSTITUTED-IMIDAZO[1,2-C]PYRIMIDINES” (Array BioPharma Inc., priority 2011, published 2014)

Key:
Format in all cases: biochemical
Human Tyk2 kinase domain = target: T1, Human Tyk2 kinase domain (Homo sapiens, UniProt P29597); experiment: Tyk2 Inhibition Assay (Omnia kinase fluorescence peptide substrate); conditions: averaged IC50 ranges; 10 μM (Km app) or 1 mM ATP, 2 nM Tyk2
T1 construct: comprising amino acids 886 to 1187; His10 (10 histidine residues) (C, cleaved yes); made in house
T1 sequence (P29597 886-1187): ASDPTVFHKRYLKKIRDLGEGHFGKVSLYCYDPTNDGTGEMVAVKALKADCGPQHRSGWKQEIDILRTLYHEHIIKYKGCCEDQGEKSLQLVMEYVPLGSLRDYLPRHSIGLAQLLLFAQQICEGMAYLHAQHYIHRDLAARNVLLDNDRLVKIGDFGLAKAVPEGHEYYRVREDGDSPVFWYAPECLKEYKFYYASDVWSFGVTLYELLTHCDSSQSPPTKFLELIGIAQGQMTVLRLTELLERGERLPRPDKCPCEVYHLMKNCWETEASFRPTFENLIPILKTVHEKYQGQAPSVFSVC
How it was run: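 Phosphorylation of 8 μM Omnia Y12 peptide followed kinetically by Sox fluorescence, ex 360/em 485 nm, every 50 s for 45 min. Enzyme: 2 nM Tyk2 kinase domain (aa 886–1187, His tag removed); ATP at 10 μM (Km app) or 1 mM; buffer HEPES pH 7.4 with MgCl2, Triton X-100, DTT. 10-point curves up to 10 μM, IC50 from 4-parameter logistic fit.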

JAK1 = target: T2, JAK1 (Homo sapiens, UniProt P23458); experiment: JAK1 Inhibition Assay (Omnia kinase fluorescence peptide substrate); conditions: averaged IC50 ranges; 40 μM (Km app) or 1 mM ATP, 15 nM JAK1
T2 construct: purchased Invitrogen Corporation, Carlsbad, Calif; IVGN PV4775
T2 sequence (P23458 whole entry): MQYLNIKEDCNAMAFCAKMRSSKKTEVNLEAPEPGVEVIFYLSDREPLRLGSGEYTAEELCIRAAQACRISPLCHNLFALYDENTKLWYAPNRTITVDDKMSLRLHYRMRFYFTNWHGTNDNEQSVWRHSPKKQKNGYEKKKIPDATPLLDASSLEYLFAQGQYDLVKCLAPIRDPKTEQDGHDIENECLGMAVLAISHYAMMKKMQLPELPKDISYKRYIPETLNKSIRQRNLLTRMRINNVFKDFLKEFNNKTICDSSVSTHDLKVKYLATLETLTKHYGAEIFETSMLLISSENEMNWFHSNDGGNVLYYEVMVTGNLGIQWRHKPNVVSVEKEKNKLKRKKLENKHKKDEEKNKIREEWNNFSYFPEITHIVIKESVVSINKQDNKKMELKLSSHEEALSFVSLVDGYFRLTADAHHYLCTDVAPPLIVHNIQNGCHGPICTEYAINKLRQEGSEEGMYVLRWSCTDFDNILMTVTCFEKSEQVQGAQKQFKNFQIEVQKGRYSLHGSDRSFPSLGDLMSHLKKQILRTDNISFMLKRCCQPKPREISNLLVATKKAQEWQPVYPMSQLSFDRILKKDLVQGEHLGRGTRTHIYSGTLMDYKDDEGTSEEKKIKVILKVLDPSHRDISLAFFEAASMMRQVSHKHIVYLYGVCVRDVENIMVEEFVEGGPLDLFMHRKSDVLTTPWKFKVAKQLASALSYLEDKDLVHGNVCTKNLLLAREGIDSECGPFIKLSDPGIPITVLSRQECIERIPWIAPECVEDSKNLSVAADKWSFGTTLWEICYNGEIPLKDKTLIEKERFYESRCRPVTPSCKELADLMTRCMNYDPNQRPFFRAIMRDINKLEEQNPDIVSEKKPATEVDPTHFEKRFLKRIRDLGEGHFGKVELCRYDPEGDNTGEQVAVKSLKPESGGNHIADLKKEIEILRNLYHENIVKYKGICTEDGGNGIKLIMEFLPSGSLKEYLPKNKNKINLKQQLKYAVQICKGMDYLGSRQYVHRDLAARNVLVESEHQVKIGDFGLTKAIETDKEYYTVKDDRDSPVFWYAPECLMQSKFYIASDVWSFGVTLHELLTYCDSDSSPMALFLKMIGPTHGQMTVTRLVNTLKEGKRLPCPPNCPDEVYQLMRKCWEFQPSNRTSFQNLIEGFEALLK
How it was run: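 15 nM JAK1, 8 μM Omnia Y12 peptide, 40 μM (Km app) or 1 mM ATP; 25 mM HEPES pH 7.4, 10 mM MgCl2, 2% DMSO. Fluorescence (ex 360/em 485 nm) read every 50 s over 45 min. IC50 by 4-parameter fit of percent of control, top dose 10 μM.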

JAK2 = target: T3, JAK2 (Homo sapiens, UniProt O60674); experiment: JAK2 Inhibition Assay (Omnia kinase fluorescence peptide substrate); conditions: averaged IC50 ranges; 25 μM (Km app) or 1 mM ATP, 5 nM JAK2
T3 construct: purchased Invitrogen Corporation, Carlsbad, Calif; IVGN PV4288
T3 sequence (O60674 whole entry): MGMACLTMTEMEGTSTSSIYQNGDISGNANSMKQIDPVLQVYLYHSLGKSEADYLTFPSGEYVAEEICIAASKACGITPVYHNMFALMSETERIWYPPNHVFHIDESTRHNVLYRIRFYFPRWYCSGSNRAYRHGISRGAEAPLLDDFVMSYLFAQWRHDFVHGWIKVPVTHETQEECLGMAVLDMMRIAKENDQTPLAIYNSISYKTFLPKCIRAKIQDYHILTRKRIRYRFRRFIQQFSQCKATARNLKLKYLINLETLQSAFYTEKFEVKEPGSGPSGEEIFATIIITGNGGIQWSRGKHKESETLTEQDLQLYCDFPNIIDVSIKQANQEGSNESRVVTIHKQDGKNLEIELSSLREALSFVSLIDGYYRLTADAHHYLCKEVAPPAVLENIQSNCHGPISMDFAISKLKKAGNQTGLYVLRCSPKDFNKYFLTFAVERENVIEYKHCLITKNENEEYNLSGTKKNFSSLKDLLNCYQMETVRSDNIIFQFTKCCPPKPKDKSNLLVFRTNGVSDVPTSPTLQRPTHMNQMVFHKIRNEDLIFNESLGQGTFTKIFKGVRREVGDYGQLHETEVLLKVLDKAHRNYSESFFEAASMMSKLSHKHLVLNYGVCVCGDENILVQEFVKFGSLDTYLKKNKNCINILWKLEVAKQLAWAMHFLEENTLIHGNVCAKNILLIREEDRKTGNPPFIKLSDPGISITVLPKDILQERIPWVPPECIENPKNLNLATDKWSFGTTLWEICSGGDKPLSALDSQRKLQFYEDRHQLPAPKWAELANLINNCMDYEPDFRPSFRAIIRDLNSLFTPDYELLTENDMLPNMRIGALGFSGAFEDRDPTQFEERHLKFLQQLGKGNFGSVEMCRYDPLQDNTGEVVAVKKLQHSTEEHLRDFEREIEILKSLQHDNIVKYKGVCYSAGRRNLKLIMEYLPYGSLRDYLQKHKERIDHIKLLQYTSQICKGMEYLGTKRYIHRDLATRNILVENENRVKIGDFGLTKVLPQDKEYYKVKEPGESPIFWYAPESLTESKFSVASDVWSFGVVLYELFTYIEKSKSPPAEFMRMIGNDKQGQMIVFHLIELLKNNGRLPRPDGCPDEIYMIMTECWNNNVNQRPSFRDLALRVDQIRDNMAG

JAK3 = target: T4, JAK3 (Homo sapiens, UniProt P52333); experiment: JAK3 Inhibition Assay (Omnia kinase fluorescence peptide substrate); conditions: averaged IC50 ranges; 10 μM (Km app) or 1 mM ATP, 2.5 nM JAK3
T4 construct: purchased Invitrogen Corporation, Carlsbad, Calif; IVGN PV4080
T4 sequence (P52333 1-1124): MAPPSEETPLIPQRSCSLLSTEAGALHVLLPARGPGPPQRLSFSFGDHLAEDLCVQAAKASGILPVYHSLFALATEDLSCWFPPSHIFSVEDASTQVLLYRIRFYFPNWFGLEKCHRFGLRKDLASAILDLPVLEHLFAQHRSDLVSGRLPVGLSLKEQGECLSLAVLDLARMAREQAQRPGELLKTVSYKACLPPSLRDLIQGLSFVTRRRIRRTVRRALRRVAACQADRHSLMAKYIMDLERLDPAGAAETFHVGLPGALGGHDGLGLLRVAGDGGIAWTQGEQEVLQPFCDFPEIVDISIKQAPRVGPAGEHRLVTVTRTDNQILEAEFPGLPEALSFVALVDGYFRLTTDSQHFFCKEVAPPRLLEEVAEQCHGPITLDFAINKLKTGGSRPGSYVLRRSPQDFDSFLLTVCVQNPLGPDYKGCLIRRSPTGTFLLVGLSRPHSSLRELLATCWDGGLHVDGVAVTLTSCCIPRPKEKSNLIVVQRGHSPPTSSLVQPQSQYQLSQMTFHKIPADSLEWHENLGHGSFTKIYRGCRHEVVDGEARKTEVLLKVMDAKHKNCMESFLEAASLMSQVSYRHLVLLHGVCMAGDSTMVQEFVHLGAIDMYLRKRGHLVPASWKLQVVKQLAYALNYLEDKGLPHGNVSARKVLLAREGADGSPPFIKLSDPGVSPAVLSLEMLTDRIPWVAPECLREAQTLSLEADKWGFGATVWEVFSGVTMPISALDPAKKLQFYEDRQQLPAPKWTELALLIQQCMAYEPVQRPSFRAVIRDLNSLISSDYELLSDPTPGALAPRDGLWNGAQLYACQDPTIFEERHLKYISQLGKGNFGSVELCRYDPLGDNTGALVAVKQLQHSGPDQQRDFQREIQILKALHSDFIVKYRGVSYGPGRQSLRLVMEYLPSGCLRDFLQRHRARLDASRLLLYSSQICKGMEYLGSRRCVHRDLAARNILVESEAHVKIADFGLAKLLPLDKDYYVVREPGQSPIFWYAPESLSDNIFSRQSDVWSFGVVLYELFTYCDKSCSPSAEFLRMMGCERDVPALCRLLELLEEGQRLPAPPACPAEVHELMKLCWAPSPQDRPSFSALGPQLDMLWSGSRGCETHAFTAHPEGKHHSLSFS
How it was run: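 IC50 is the concentration giving 50 percent of control on a 4-parameter logistic fit of 10-point, 3-fold dilutions from a 10 μM top dose, at 2% final DMSO. Kinetic Sox fluorescence (360/485 nm) was monitored every 50 s for 45 min. Mix: JAK3 2.5 nM, Omnia Y7 peptide 10 μM, ATP 10 μM (Km app) or 1 mM, in HEPES pH 7.4 buffer with MgCl2, Triton X-100 and DTT.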

| SMILES | IC50 (Human Tyk2 kinase domain) [nM] | IC50 (JAK1) [nM] | IC50 (JAK2) [nM] | IC50 (JAK3) [nM] |
| --- | --- | --- | --- | --- |
| COCCC(C1CCC1)n1cc(-c2nc(-c3cnn(C)c3)cc3nccn23)cn1 (stereo not drawn) [Example 76, 5-(1-(1-cyclobutyl-3-methoxypropyl)-1H-pyrazol-4-yl)-7-(1-methyl-1H-pyrazol-4-yl)imidazo[1,2-c]pyrimidine] | 100 to 1000 | > 1000 | 100 to 1000 | > 1000 |
| COC(=O)CC(c1ccccc1)n1cc(-c2nc(-c3cnn(C)c3)cc3nccn23)cn1 (stereo not drawn) [Example 77, methyl 3-(4-(7-(1-methyl-1H-pyrazol-4-yl)imidazo[1,2-c]pyrimidin-5-yl)-1H-pyrazol-1-yl)-3-phenylpropanoate] | 100 to 1000 | 100 to 1000 | 100 to 1000 | 100 to 1000 |
| O=S(=O)(N1CC(CCF)(n2cc(-c3nc(-c4cn[nH]c4)cc4nccn34)cn2)C1)C(F)(F)F [Example 78, 5-(1-(3-(2-fluoroethyl)-1-((trifluoromethyl)sulfonyl)azetidin-3-yl)-1H-pyrazol-4-yl)-7-(1H-pyrazol-4-yl)imidazo[1,2-c]pyrimidine] | < 10 | 10 to 100 | 10 to 100 | 100 to 1000 |
| Cn1ccc(-c2cc3nccn3c(-c3cnn(C4(CCF)CN(S(=O)(=O)C(F)(F)F)C4)c3)n2)cc1=O [Example 79, 4-(5-(1-(3-(2-fluoroethyl)-1-((trifluoromethyl)sulfonyl)azetidin-3-yl)-1H-pyrazol-4-yl)imidazo[1,2-c]pyrimidin-7-yl)-1-methylpyridin-2(1H)-one] | 10 to 100 | 100 to 1000 | 100 to 1000 | 100 to 1000 |
| COC(=O)CC(c1ccc(F)cc1)n1cc(-c2nc(-c3cnn(C)c3)cc3nccn23)cn1 (stereo not drawn) [Example 80, methyl 3-(4-fluorophenyl)-3-(4-(7-(1-methyl-1H-pyrazol-4-yl)imidazo[1,2-c]pyrimidin-5-yl)-1H-pyrazol-1-yl)propanoate] | 100 to 1000 | > 1000 | 100 to 1000 | > 1000 |
| Cn1cc(-c2cc3nccn3c(-c3cnn(C(CCO)c4ccc(F)cc4)c3)n2)cn1 (stereo not drawn) [Example 81, 3-(4-fluorophenyl)-3-(4-(7-(1-methyl-1H-pyrazol-4-yl)imidazo[1,2-c]pyrimidin-5-yl)-1H-pyrazol-1-yl)propan-1-ol] | 100 to 1000 | 100 to 1000 | 100 to 1000 | 100 to 1000 |
| COCCC(c1ccc(F)cc1)n1cc(-c2nc(-c3cnn(C)c3)cc3nccn23)cn1 (stereo not drawn) [Example 82, 5-(1-(1-(4-fluorophenyl)-3-methoxypropyl)-1H-pyrazol-4-yl)-7-(1-methyl-1H-pyrazol-4-yl)imidazo[1,2-c]pyrimidine] | 100 to 1000 | 100 to 1000 | 100 to 1000 | 100 to 1000 |
| CCCCC1(n2cc(-c3nc(-c4cnn(C)c4)cc4nccn34)cn2)CN(S(=O)(=O)C(F)(F)F)C1 [Example 83, 5-(1-(3-butyl-1-((trifluoromethyl)sulfonyl)azetidin-3-yl)-1H-pyrazol-4-yl)-7-(1-methyl-1H-pyrazol-4-yl)imidazo[1,2-c]pyrimidine] | 10 to 100 | 100 to 1000 | 100 to 1000 | 100 to 1000 |
| Cc1nn(C)cc1S(=O)(=O)N1CC(CCF)(n2cc(-c3nc(-c4cnn(C)c4)cc4nccn34)cn2)C1 [Example 85, 5-(1-(1-((1,3-dimethyl-1H-pyrazol-4-yl)sulfonyl)-3-(2-fluoroethyl)azetidin-3-yl)-1H-pyrazol-4-yl)-7-(1-methyl-1H-pyrazol-4-yl)imidazo[1,2-c]pyrimidine] | 100 to 1000 | 100 to 1000 | 100 to 1000 | > 1000 |
| Cn1cc(-c2cc3nccn3c(-c3cnn(C4(CCF)CN(S(=O)(=O)CC(F)(F)F)C4)c3)n2)cn1 [Example 86, 5-(1-(3-(2-fluoroethyl)-1-((2,2,2-trifluoroethyl)sulfonyl)azetidin-3-yl)-1H-pyrazol-4-yl)-7-(1-methyl-1H-pyrazol-4-yl)imidazo[1,2-c]pyrimidine] | 100 to 1000 | > 1000 | 100 to 1000 | > 1000 |
| Cn1cc(-c2cc3nccn3c(-c3cnn(C4(CCF)CN(S(=O)(=O)CC5CC5)C4)c3)n2)cn1 [Example 87, 5-(1-(1-((cyclopropylmethyl)sulfonyl)-3-(2-fluoroethyl)azetidin-3-yl)-1H-pyrazol-4-yl)-7-(1-methyl-1H-pyrazol-4-yl)imidazo[1,2-c]pyrimidine] | 100 to 1000 | 100 to 1000 | 100 to 1000 | 100 to 1000 |
| CCCC1(n2cc(-c3nc(-c4cnn(C)c4)cc4nccn34)cn2)CN(S(=O)(=O)C(F)(F)F)C1 [Example 88, 7-(1-methyl-1H-pyrazol-4-yl)-5-(1-(3-propyl-1-((trifluoromethyl)sulfonyl)azetidin-3-yl)-1H-pyrazol-4-yl)imidazo[1,2-c]pyrimidine] | 10 to 100 | 100 to 1000 | 10 to 100 | 100 to 1000 |
| COCCn1cc(-c2cc3nccn3c(-c3cnn(C4(CCF)CN(S(=O)(=O)C(F)(F)F)C4)c3)n2)cn1 [Example 89, 5-(1-(3-(2-fluoroethyl)-1-((trifluoromethyl)sulfonyl)azetidin-3-yl)-1H-pyrazol-4-yl)-7-(1-(2-methoxyethyl)-1H-pyrazol-4-yl)imidazo[1,2-c]pyrimidine] | < 10 | 10 to 100 | 10 to 100 | 100 to 1000 |
| CC=CCC1(n2cc(-c3nc(-c4cnn(C)c4)cc4nccn34)cn2)CN(S(=O)(=O)C(F)(F)F)C1 [Example 90, 5-(1-(3-(but-2-en-1-yl)-1-((trifluoromethyl)sulfonyl)azetidin-3-yl)-1H-pyrazol-4-yl)-7-(1-methyl-1H-pyrazol-4-yl)imidazo[1,2-c]pyrimidine] | 10 to 100 | 10 to 100 | 10 to 100 | 10 to 100 |
| C=CCC1(n2cc(-c3nc(-c4cnn(C)c4)cc4nccn34)cn2)CN(S(=O)(=O)C(F)(F)F)C1 [Example 91, 5-(1-(3-allyl-1-((trifluoromethyl)sulfonyl)azetidin-3-yl)-1H-pyrazol-4-yl)-7-(1-methyl-1H-pyrazol-4-yl)imidazo[1,2-c]pyrimidine] | < 10 | 10 to 100 | 10 to 100 | 100 to 1000 |
